Laboratory results from PubChem BioAssay (NCI).
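In this assay, cells in 96-well plates receive the compound at five concentrations for 48 hours. Endpoints are linearly interpolated between the surrounding concentrations. GI50 is the concentration that inhibits growth by half. At the TGI there is no net growth.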

Columns and labels:
Experiment in all cases: growth of human tumour cells (NCI), 48 h
OVCAR-4 ovarian = system: OVCAR-4 ovarian
HOP-92 NSCLC = system: HOP-92 NSCLC
UACC-62 melanoma = system: UACC-62 melanoma
HOP-62 NSCLC = system: HOP-62 NSCLC
ACHN renal = system: ACHN renal
DU-145 prostate = system: DU-145 prostate
SNB-19 CNS = system: SNB-19 CNS
SK-MEL-5 melanoma = system: SK-MEL-5 melanoma
SK-OV-3 ovarian = system: SK-OV-3 ovarian
NCI-H23 lung = system: NCI-H23 lung

`CC(=O)OCC(OC(C)=O)C1C[C@H]2O[C@@H]3[C@H](C[C@H]2O1)O[C@@]1(C[C@@H]3C)C[C@H](C)[C@@H]2O[C@]3(C[C@@H]2O1)C[C@H]1O[C@H]2[C@H](C)[C@H]4OC(=O)CC5CC[C@H]6OC7[C@H]8O[C@]9(CC[C@H]%10CC(O)(CO)[C@H](CC[C@H]%11C[C@@H](C)C(O)(CO)C(C[C@@H]4O[C@H]2C[C@H]1O3)O%11)O%10)CC8O[C@@H]7[C@@H](O9)[C@H]6O5` (some centres not stated) was tested, and the TGI (OVCAR-4 ovarian) was greater than 1 µM, the TGI (HOP-92 NSCLC) was greater than 1 µM and the TGI (UACC-62 melanoma) was greater than 1 µM. The TGI (HOP-62 NSCLC) was greater than 1 µM, the TGI (ACHN renal) was greater than 1 µM and the TGI (DU-145 prostate) was 0.0688 µM. The TGI (SNB-19 CNS) was greater than 1 µM, the TGI (SK-MEL-5 melanoma) was greater than 1 µM and the TGI (SK-OV-3 ovarian) was greater than 1 µM.

Molecule `COc1ccc2cc(NC(=O)N/N=C\c3ccc(Cl)cc3)ccc2c1` has a TGI (OVCAR-4 ovarian) greater than 100 µM, a TGI (HOP-92 NSCLC) greater than 100 µM and a TGI (UACC-62 melanoma) greater than 100 µM. The TGI (HOP-62 NSCLC) was greater than 100 µM, the TGI (ACHN renal) was greater than 100 µM and the TGI (DU-145 prostate) was greater than 100 µM. The TGI (SNB-19 CNS) was greater than 100 µM, the TGI (NCI-H23 lung) was greater than 100 µM and the TGI (SK-OV-3 ovarian) was greater than 100 µM.

In the case of `Cc1cccc(C)c1NC(=O)C(=O)C1C(=O)NC(=O)NC1=O`, the TGI (OVCAR-4 ovarian) is reported as greater than 100 µM, the TGI (HOP-92 NSCLC) is reported as greater than 100 µM and the TGI (UACC-62 melanoma) is reported as greater than 100 µM. It also gave a TGI (HOP-62 NSCLC) greater than 100 µM, a TGI (ACHN renal) greater than 100 µM and a TGI (SNB-19 CNS) greater than 100 µM. The TGI (SK-MEL-5 melanoma) was greater than 100 µM, the TGI (NCI-H23 lung) was greater than 100 µM and the TGI (SK-OV-3 ovarian) was greater than 100 µM.

`Cc1cn([C@@H]2C[C@H]2CO)c(=O)[nH]c1=O` was tested, and the TGI (OVCAR-4 ovarian) was greater than 100 µM, the TGI (HOP-92 NSCLC) was greater than 100 µM and the TGI (UACC-62 melanoma) was greater than 100 µM. For the same molecule, the TGI (HOP-62 NSCLC) was greater than 100 µM, the TGI (ACHN renal) was greater than 100 µM and the TGI (DU-145 prostate) was greater than 100 µM. It also gave a TGI (SNB-19 CNS) greater than 100 µM, a TGI (SK-MEL-5 melanoma) greater than 100 µM and a TGI (NCI-H23 lung) greater than 100 µM.

In the case of `O=C1NC2OC(CO)C(O)C(O1)C2O` (configuration not stated), the TGI (OVCAR-4 ovarian) is reported as greater than 100 µM, the TGI (HOP-92 NSCLC) is reported as greater than 100 µM and the TGI (UACC-62 melanoma) is reported as greater than 100 µM. For the same molecule, the TGI (HOP-62 NSCLC) was greater than 100 µM, the TGI (ACHN renal) was greater than 100 µM and the TGI (SNB-19 CNS) was greater than 100 µM. The TGI (SK-MEL-5 melanoma) was greater than 100 µM, the TGI (NCI-H23 lung) was greater than 100 µM and the TGI (SK-OV-3 ovarian) was greater than 100 µM.

In the case of `CC1(C(=O)O)CCCC1C(=O)O` (configuration not stated), the TGI (OVCAR-4 ovarian) is reported as greater than 100 µM, the TGI (HOP-92 NSCLC) is reported as greater than 100 µM and the TGI (UACC-62 melanoma) is reported as greater than 100 µM. The TGI (HOP-62 NSCLC) was greater than 100 µM, the TGI (ACHN renal) was greater than 100 µM and the TGI (DU-145 prostate) was greater than 100 µM. The TGI (SNB-19 CNS) was greater than 100 µM, the TGI (SK-MEL-5 melanoma) was greater than 100 µM and the TGI (NCI-H23 lung) was greater than 100 µM.

`COc1ccc2c(c1)CN1C(=N2)CSC1c1ccccc1Cl` (configuration not stated) gave a TGI (OVCAR-4 ovarian) of 45.1 µM, a TGI (HOP-92 NSCLC) of 31.2 µM and a TGI (UACC-62 melanoma) of 34.6 µM. It also gave a TGI (HOP-62 NSCLC) greater than 100 µM, a TGI (ACHN renal) of 41.8 µM and a TGI (SNB-19 CNS) greater than 100 µM. For the same molecule, the TGI (SK-MEL-5 melanoma) was 28.5 µM, the TGI (NCI-H23 lung) was 3.45 µM and the TGI (SK-OV-3 ovarian) was 79.2 µM.

Work on `O=C(CC1=NCCN1)c1ccccc1` yielded a TGI (OVCAR-4 ovarian) greater than 750 µM, a TGI (HOP-92 NSCLC) greater than 750 µM and a TGI (UACC-62 melanoma) greater than 750 µM. For the same molecule, the TGI (HOP-62 NSCLC) was greater than 750 µM, the TGI (SNB-19 CNS) was greater than 750 µM and the TGI (SK-MEL-5 melanoma) was greater than 750 µM. It also gave a TGI (NCI-H23 lung) greater than 750 µM and a TGI (SK-OV-3 ovarian) greater than 750 µM.

`C=C1CC(C)(c2ccc(Nc3nc4ccccc4c4occc34)cc2)OC1=O` (configuration not stated) gave a TGI (OVCAR-4 ovarian) of 7.73 µM, a TGI (HOP-92 NSCLC) of 12.6 µM and a TGI (HOP-62 NSCLC) of 34 µM. It also gave a TGI (ACHN renal) of 17.8 µM, a TGI (DU-145 prostate) of 28.4 µM and a TGI (SNB-19 CNS) of 34.6 µM. For the same molecule, the TGI (SK-MEL-5 melanoma) was 19.6 µM, the TGI (NCI-H23 lung) was 4.55 µM and the TGI (SK-OV-3 ovarian) was 24.1 µM.

Molecule `CC1S/C(=N/c2nnc(-c3ccccc3)o2)NC1=O` (configuration not stated) has a TGI (OVCAR-4 ovarian) greater than 100 µM, a TGI (HOP-92 NSCLC) greater than 100 µM and a TGI (UACC-62 melanoma) greater than 100 µM. The TGI (HOP-62 NSCLC) was greater than 100 µM, the TGI (ACHN renal) was greater than 100 µM and the TGI (DU-145 prostate) was greater than 100 µM. It also gave a TGI (SNB-19 CNS) greater than 100 µM, a TGI (SK-MEL-5 melanoma) greater than 100 µM and a TGI (NCI-H23 lung) greater than 100 µM.

For `N#Cc1c(-c2ccc(F)cc2)nc(N/N=C/c2c[nH]c3ccccc23)nc1N1CCOCC1`, the GI50 (OVCAR-4 ovarian) was 16.1 µM, the TGI (OVCAR-4 ovarian) was 62.8 µM and the GI50 (HOP-92 NSCLC) was 2.44 µM. For the same molecule, the TGI (HOP-92 NSCLC) was 52.4 µM, the GI50 (UACC-62 melanoma) was 11.4 µM and the TGI (UACC-62 melanoma) was 27.4 µM. For the same molecule, the GI50 (ACHN renal) was 2.24 µM, the TGI (ACHN renal) was 30.7 µM and the GI50 (DU-145 prostate) was 2.9 µM. For the same molecule, the TGI (DU-145 prostate) was greater than 100 µM, the GI50 (SNB-19 CNS) was 21 µM and the TGI (SNB-19 CNS) was greater than 100 µM. It also gave a GI50 (SK-MEL-5 melanoma) of 10.9 µM, a TGI (SK-MEL-5 melanoma) of 25.9 µM and a GI50 (NCI-H23 lung) of 21.2 µM. The TGI (NCI-H23 lung) was 92.7 µM, the GI50 (SK-OV-3 ovarian) was 8.61 µM and the TGI (SK-OV-3 ovarian) was 38.9 µM.
